pIC50: −log10 of the molar value.
assay: Cytotoxicity against mouse P388 cells after 3 days by MTT assay; format: functional, cell-based; conditions: P388, 72 h

Row | Compound | pIC50
1 | CC/C=C1/NC(=O)/C=C/[C@H](C(C)C)OC(=O)C(C)(C)[C@H](C[C@H](/C=C/C=C/C/C=C\CCCC)OC)OC(=O)CNC(=O)[C@H](CNC(N)=O)NC(=O)CNC(=O)[C@@H](CCCNC(=O)NS(=O)(=O)O)NC1=O | 4.52
2 | CC/C=C1/NC(=O)/C=C/[C@H](C(C)C)OC(=O)C(C)(C)[C@H](C[C@H](/C=C/C=C/C/C=C\CCC(C)C)OC)OC(=O)CNC(=O)[C@H](CNC(N)=O)NC(=O)CNC(=O)[C@@H](CCCNC(=O)NS(=O)(=O)O)NC1=O | 4.82
3 | CC/C=C1/NC(=O)/C=C/[C@H]([C@@H](C)CC)OC(=O)C(C)(C)[C@H](C[C@H](/C=C/C=C/C/C=C\CCC(C)C)OC)OC(=O)CNC(=O)[C@H](CNC(N)=O)NC(=O)CNC(=O)[C@@H](CCCNC(=O)NS(=O)(=O)O)NC1=O | 4.54
4 | CC/C=C1/NC(=O)/C=C/[C@H](C(C)C)OC(=O)C(C)(C)[C@H](C[C@H](/C=C/C=C/C/C=C\CCC(C)C)OC)OC(=O)CNC(=O)[C@H](CNC(N)=O)NC(=O)CNC(=O)[C@@H](CCCNC(N)=O)NC1=O | 4.44
